Measurements taken from patent US20250281647A1, “STEALTH LIPID NANOPARTICLE COMPOSITIONS FOR CELL TARGETING” (Generation Bio Co., priority 2023, published 2025).

Biological target: T1, ASGPR (Homo sapiens, UniProt P07306)
T1 sequence (P07306 1-291): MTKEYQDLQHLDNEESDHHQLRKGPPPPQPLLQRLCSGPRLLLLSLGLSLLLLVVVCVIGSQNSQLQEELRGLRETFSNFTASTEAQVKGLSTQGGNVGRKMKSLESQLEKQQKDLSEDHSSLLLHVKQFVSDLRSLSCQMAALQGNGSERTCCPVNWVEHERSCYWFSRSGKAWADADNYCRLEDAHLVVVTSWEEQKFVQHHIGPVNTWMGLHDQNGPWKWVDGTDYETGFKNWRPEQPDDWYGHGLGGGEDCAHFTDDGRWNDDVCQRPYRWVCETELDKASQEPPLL
Test: Binding of targeting ligand formats to ASGPR
Conditions: read-out: dissociation constants (Kd)
Description: In this example, multiple targeting ligand formats with varying affinities to ASGPR and off target receptors were compared. […] The high degree of over modification refers to modifying each Fab with more than 1 SATA molecule leading to multiple points of PEG-Mal conjugation during the final phase of ctLNP formulation and conjugation.

Kd: ~30.7 nM
SMILES: CC(=O)N[C@H]1C(O)O[C@H](CO)[C@H](O)[C@@H]1O (stereo partly shown) [GalNAc]
